Molecules are shown by their SMILES.

As usually defined, the IC50 is the concentration at which inhibition is half-maximal.

The target of this assay is T1, Recombinant human sEH (Homo sapiens, UniProt P34913).
T1 construct: made in house
T1 sequence (P34913 1-555): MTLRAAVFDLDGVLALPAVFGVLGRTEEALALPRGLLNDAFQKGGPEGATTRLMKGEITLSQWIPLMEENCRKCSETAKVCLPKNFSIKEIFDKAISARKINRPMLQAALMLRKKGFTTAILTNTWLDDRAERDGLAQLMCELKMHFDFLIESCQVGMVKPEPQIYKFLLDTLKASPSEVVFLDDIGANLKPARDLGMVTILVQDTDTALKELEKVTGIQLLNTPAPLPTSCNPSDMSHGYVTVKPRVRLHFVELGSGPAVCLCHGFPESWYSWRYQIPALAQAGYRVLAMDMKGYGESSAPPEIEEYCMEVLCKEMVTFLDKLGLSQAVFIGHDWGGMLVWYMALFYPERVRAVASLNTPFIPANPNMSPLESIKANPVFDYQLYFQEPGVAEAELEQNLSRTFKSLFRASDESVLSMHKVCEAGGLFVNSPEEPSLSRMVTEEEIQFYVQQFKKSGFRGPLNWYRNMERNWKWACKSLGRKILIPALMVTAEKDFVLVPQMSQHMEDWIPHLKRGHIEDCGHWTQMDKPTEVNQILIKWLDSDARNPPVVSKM
The assay can be described thus: Inhibition of human soluble epoxide hydrolase (IC50 assay). Format: biochemical. From the text: This example provides assays and illustrates the inhibition of human soluble epoxide hydrolases by compounds of the invention.
Recombinant human sEH was produced in a baculovirus expression system and purified by affinity chromatography. The preparations were at least 97% pure as judged by SDS-PAGE and scanning densitometry. No detectable esterase or glutathione transferase activity, which can interfere with this sEH assay, was observed. Protein concentration was quantified by using the Pierce BCA assay using Fraction V bovine serum albumin as the calibrating standard.
IC50 values were determined in one of three methods. One method uses racemic 4-nitrophenyl-trans-2,3-epoxy-3-phenylpropyl carbonate as substrate. Enzyme (0.24 μM human sEH) was incubated with inhibitors for 5 min in sodium phosphate buffer, 0.1 M pH 7.4, at 30° C. before substrate introduction([S]=40 μM). Activity was assessed by measuring the appearance of the 4-nitrophenolate anion at 405 nm at 30° C. during 1 min (Spectramax 200; Molecular Devices). Assays were performed in triplicate. 1050 is a concentration of inhibitor, which reduces enzyme activity by 50%, and was determined by regression of at least five datum points with a minimum of two points in the linear region of the curve on either side of the IC50. The curve was generated from at least three separate runs, each in triplicate.
Other IC50 values were determined using the procedure described in Analytical
Biochemistry 343 66-75 (2005) using cyano(6-methoxy-naphthalen-2-yl)methyl trans-[(3-phenyloxiran-2-yl)methyl]carbonate as a substrate. Enzymes (0.96 nM for human sEH) were incubated with inhibitors ([I]=0.5-10,000 nM) for 5 min in BisTris-HCl buffer (25 mM, pH 7.0, containing 0.1 mg/ml of BSA) at 30° C. prior to substrate introduction ([S]=5 µM). Enzyme activity was measured by monitoring the appearance of 6-methoxy-2-naphthaldehyde. Assays were performed in triplicate. By definition, IC50 values are concentrations of inhibitor that reduce enzyme activity by 50%. IC50 values were determined by regression of at least five datum points, with a minimum of two datum points in the linear region of the curve on either side of the IC50 values. The curve was generated from at least three separate runs, each in triplicate.
Other inhibition potencies were determined using a fluorescent based high-throughput assay. Inhibitors in solution at 10 mM in DMSO were serially diluted by 10-fold increment in Bis/Tris HCl buffer (25 mM pH 7.0) containing 0.1 mg/mL of BSA (Buffer A). In black 96-well plates, 20 µL of the inhibitor dilution or buffer were delivered in every well, and then 130 μL of Human sEH at ˜0.4 μg/mL in solution in Buffer A were added to each well. The plate was then mixed and incubated at room temperature for 5 minutes. Fifty microliters of substrate ((3-Phenyl-oxiranyl)-acetic acid cyano-(6-methoxy-naphthalen-2-yl)-methyl ester; PHOME) at 200 μM in solution in 96:4 Buffer A:DMSO was then added to each well to give [S]final=50 μM and [E]final=˜4 nM. The plate was then mixed and incubated in the dark at room temperature (˜25° C.) for 90 min. Activity was measured by determining the relative quantity of 6-methoxy-2-naphthaldehyde formed with an excitation wavelength of 316 nm and an emission wavelength of 460 nm measured with a SpectraMax M-2 fluorometer (molecular Devices, Sunnyvale, Calif.).
Assays were conducted with the compounds indicated in the table below, as described above.

As for `CC(C)c1cccc(C(C)(C)NC(=O)NCCCCc2ccccc2)c1` [Compound 1805], the IC50 amounted to 0.0115 µM.

Take `C=C(C)c1cccc(C(C)(C)NC(=O)NCCCCCCCCCCCC)c1` [Compound 1714]: the IC50 amounted to 0.033 µM.

`CC(C)c1cccc(C(C)(C)NC(=O)NCCCCCCCCCCCC(=O)O)c1` [Compound 1808]: the IC50 is 0.0525 µM.

In the case of `C=C(C)c1cccc(C(C)(C)NC(=O)NC2CCCCC2)c1` [Compound 1520], the IC50 was determined as 0.0114 µM.

For the compound `C=C(C)c1cccc(C(C)(C)NC(=O)Nc2cccc(C(=O)O)c2)c1` [Compound 1718], the IC50 is 7.92 µM.

Consider `CC(C)c1cccc(C(C)(C)NC(=O)NCCc2ccc(C(=O)O)cc2)c1` [Compound 1807], for which the IC50 amounted to 2.89 µM.

Take `CC(C)c1cccc(C(C)(C)NC(=O)NC2CCN(C(=O)OC(C)(C)C)CC2)c1` [Compound 1868]: the IC50 came to 0.0216 µM.

On to `CC(C)c1cccc(C(C)(C)NC(=O)NC2CCN(S(C)(=O)=O)CC2)c1` [Compound 2048], for which the IC50 came out at 0.0976 µM.

For the compound `CC(C)c1cccc(C(C)(C)NC(=O)NC2CCC(C(=O)O)CC2)c1` (stereo not drawn) [Compound 1852], the IC50 was determined as 0.555 µM.

On to `CC(C)c1cccc(C(C)(C)NC(=O)NC2CCCCC2)c1` [Compound 1713, 1-cyclohexyl-3-(2-(3-isopropylphenyl)propan-2-yl)urea], for which the IC50 was 0.0075 µM.

For `CC(C)c1cccc(C(C)(C)NC(=O)NC2CCC(O)CC2)c1` (stereo not drawn) [Compound 1892], the IC50 stood at 0.393 µM.

Consider `CC(C)c1cccc(C(C)(C)NC(=O)N[C@H]2CC[C@H](Oc3ccc(C(=O)O)cc3)CC2)c1` [Compound 1956], for which the IC50 came to 0.0039 µM.

`C=C(C)c1cccc(C(C)(C)NC(=O)Nc2cccc(C(=O)OCC)c2)c1` [Compound 1716]: the half-inhibitory concentration (IC50) is 0.0413 µM.

`CC(C)c1cccc(C(C)(C)NC(=O)NCc2ccc(Oc3ccccc3)cc2)c1` [Compound 1955]: the half-inhibitory concentration (IC50) was found to be 0.0106 µM.

For `CC(=O)N1CCC(NC(=O)NC(C)(C)c2cccc(C(C)C)c2)CC1` [Compound 2064], the IC50 is 0.444 µM.

As to `C=C(C)c1cccc(C(C)(C)NC(=O)N[C@H]2CC[C@H](O)CC2)c1` [Compound 1887, trans-1-(4-Hydroxy-cyclohexyl)-3-[1-(3-isopropenyl)-1-methyl-ethyl]-urea], the half-inhibitory concentration (IC50) was 0.0767 µM.

Consider `CCCCCCCCCCCCNC(=O)NC(C)(C)c1cccc(C(C)C)c1` [Compound 1715], for which the IC50 worked out at 0.0109 µM.

Regarding `CC(C)c1cccc(C(C)(C)NC(=O)Nc2cccc(C(=O)O)c2)c1` [Compound 1719], the IC50 came to 1.61 µM.

In the case of `CC(C)c1cccc(C(C)(C)NC(=O)N[C@H]2CC[C@H](Oc3ccc(C#N)cc3)CC2)c1` [Compound 1908, trans-1-[4-(4-Cyano-phenoxy)-cyclohexyl]-3-[1-(3-isopropyl-phenyl)-1-methyl-ethyl]-urea], the IC50 is 0.0098 µM.

Take `CCOC(=O)c1cccc(NC(=O)NC(C)(C)c2cccc(C(C)C)c2)c1` [Compound 1717]: the half-maximal inhibitory concentration (IC50) is 0.158 µM.

With `CC(C)c1cccc(C(C)(C)NC(=O)NCC2CCN(C(=O)OC(C)(C)C)CC2)c1` [Compound 1806], the IC50 is 0.0056 µM.

For the origin of these results see patent US20110098322A1, “PREPARATION OF NOVEL 1,3-S[…] AS INHIBITORS OF SOLUBLE EPOXIDE HYDROLASE” (priority 2007, published 2011).
